{
  "source": "patent US8981111B2",
  "about": "(priority 2008, dated 2015)",
  "data": [
    {"assay": "log P (HPLC/MS data of the preparation examples)", "settings": "LC-MS, method [b]: pH 2.7 with 0.1% formic acid in water and acetonitrile, linear gradient 10% to 95% acetonitrile", "values": [
      {"smiles": "CCC(C)COC(=O)Nc1cccc(CON=C(c2ccccc2)c2nccn2C)n1", "note": "(centres unmarked) [Example 324]", "log p": "2.52^[b]"},
      {"smiles": "CC(C)COC(=O)Nc1cccc(CON=C(c2ccccc2)c2nccn2C)n1", "note": "[Example 325]", "log p": "2.21^[b]"},
      {"smiles": "CC(C)CCOC(=O)Nc1cccc(CON=C(c2ccccc2)c2nccn2C)n1", "note": "[Example 326]", "log p": "2.51^[b]"},
      {"smiles": "Cn1ccnc1C(=NOCc1cccc(NC(=O)OCC(Cl)(Cl)Cl)n1)c1ccccc1", "note": "[Example 327]", "log p": "2.45^[b]"},
      {"smiles": "C=CCCOC(=O)Nc1cccc(CON=C(c2ccccc2)c2nccn2C)n1", "note": "[Example 328]", "log p": "2.02^[b]"},
      {"smiles": "CC(C)CCC(=O)Nc1cccc(CON=C(c2ccccc2)c2nccn2C)n1", "note": "[Example 329]", "log p": "2.15^[b]"},
      {"smiles": "C#CCOC(=O)Nc1cccc(CON=C(c2ccccc2)c2nccn2C)n1", "note": "[Example 330]", "log p": "1.66^[b]"},
      {"smiles": "Cn1ccnc1C(=NOCc1cccc(NC(=O)CCc2ccc(Cl)s2)n1)c1ccccc1", "note": "[Example 331]", "log p": "2.49^[b]"},
      {"smiles": "C#CCCOC(=O)Nc1cccc(CON=C(c2ccccc2)c2nccn2C)n1", "note": "[Example 332]", "log p": "1.78^[b]"},
      {"smiles": "CC(C(=O)Nc1cccc(CON=C(c2ccccc2)c2nccn2C)n1)c1ccccc1", "note": "(centres unmarked) [Example 333]", "log p": "2.21^[b]"},
      {"smiles": "CCCCSC(=O)Nc1cccc(CON=C(c2ccccc2)c2nccn2C)n1", "note": "[Example 334]", "log p": "2.58^[b]"},
      {"smiles": "Cn1ccnc1C(=NOCc1cccc(NC(=O)CCc2ccc(Cl)s2)n1)c1cccc(F)c1", "note": "[Example 335]", "log p": "2.77^[b]"},
      {"smiles": "C#CCCOC(=O)Nc1cccc(CON=C(c2cccc(F)c2)c2nccn2C)n1", "note": "[Example 336]", "log p": "1.98^[b]"},
      {"smiles": "COC(C(=O)Nc1cccc(CON=C(c2ccccc2)c2nccn2C)n1)c1ccccc1", "note": "(centres unmarked) [Example 337]", "log p": "2.15^[b]"},
      {"smiles": "Cn1ccnc1C(=NOCc1cccc(NC(=O)C2CCCCO2)n1)c1ccccc1", "note": "(centres unmarked) [Example 338]", "log p": "1.93^[b]"},
      {"smiles": "COCCOC(=O)Nc1cccc(CON=C(c2ccccc2)c2nccn2C)n1", "note": "[Example 339]", "log p": "1.34^[b]"},
      {"smiles": "Cn1ccnc1C(=NOCc1cccc(NC(=O)C2CCCCO2)n1)c1cccc(F)c1", "note": "(centres unmarked) [Example 340]", "log p": "2.17^[b]"},
      {"smiles": "COCCOC(=O)Nc1cccc(CON=C(c2cccc(F)c2)c2nccn2C)n1", "note": "[Example 341]", "log p": "1.66^[b]"},
      {"smiles": "CCCCSC(=O)Nc1cccc(CON=C(c2cccc(F)c2)c2nccn2C)n1", "note": "[Example 342]", "log p": "2.88^[b]"},
      {"smiles": "Cn1ccnc1C(=NOCc1cccc(NC(=O)OCCF)n1)c1cccc(F)c1", "note": "[Example 343]", "log p": "1.75^[b]"},
      {"smiles": "CCC(C)COC(=O)Nc1cccc(CON=C(c2cccc(F)c2)c2nccn2C)n1", "note": "(centres unmarked) [Example 344]", "log p": "2.82^[b]"},
      {"smiles": "CC(C)COC(=O)Nc1cccc(CON=C(c2cccc(F)c2)c2nccn2C)n1", "note": "[Example 345]", "log p": "2.51^[b]"},
      {"smiles": "CC(C)CCOC(=O)Nc1cccc(CON=C(c2cccc(F)c2)c2nccn2C)n1", "note": "[Example 346]", "log p": "2.82^[b]"},
      {"smiles": "Cn1ccnc1C(=NOCc1cccc(NC(=O)OCC(Cl)(Cl)Cl)n1)c1cccc(F)c1", "note": "[Example 347]", "log p": "2.73^[b]"},
      {"smiles": "CC(C)CCC(=O)Nc1cccc(CON=C(c2cccc(F)c2)c2nccn2C)n1", "note": "[Example 348]", "log p": "2.42^[b]"},
      {"smiles": "COC(C(=O)Nc1cccc(CON=C(c2cccc(F)c2)c2nccn2C)n1)c1ccccc1", "note": "(centres unmarked) [Example 349]", "log p": "2.42^[b]"},
      {"smiles": "Cc1ncoc1C(=NOCc1csc(N)n1)c1ccccc1", "note": "[Example 351, 4-[({[(4-methyl-1,3-oxazol-5-yl)(phenyl)methylene]amino-}oxy)methyl]-1,3-thiazol-2-amine]", "log p": "1.46^[b]"}
    ]},
    {"assay": "log P (HPLC/MS data of the preparation examples)", "settings": "reversed phase HPLC column, pH 2.7", "values": [
      {"smiles": "CCCCCOC(=O)Nc1nc(CON=C(c2ccccc2)c2ocnc2C)cs1", "note": "[Example 321, pentyl{4-[({[(4-methyl-1,3-oxazol-5-yl)(phenyl)methylene]amino}oxy)methyl]-1,3-thiazol-2-yl}carbamate]", "chromatographic logP": 4.09},
      {"smiles": "Cc1ncoc1C(=NOCc1cccc(N2C(=O)c3ccccc3C2=O)n1)c1ccccc1", "note": "[Example 352, 2-{6-[({[(4-methyl-1,3-oxazol-5-yl)(phenyl)methylene]amino}oxy)methyl]pyridin-2-yl}-1H-isoindole-1,3(2H)-dione]", "chromatographic logP": 3.25}
    ]}
  ]
}
